In brackets after ≈: the same amount, converted by molar mass.
Experiments:
[1] = system: Mus musculus; experiment: Antidepressant activity in po dosed Swiss mouse assessed as reversal of reserpine-induced ptosis administered 1 hr prior to reserpine challenge; format: functional
[2] = system: Mus musculus; experiment: Antidepressant activity in po dosed Swiss mouse assessed as reversal of reserpine-induced hypothermia measured over 5 hrs; format: functional
[3] = Acute toxicity in po dosed Swiss mouse assessed as mortality after 7 days; format: organism-based; conditions: in vivo
[4] = system: Mus musculus; experiment: Toxicity in po dosed Swiss mouse assessed as behavioral changes; format: organism-based; conditions: in vivo
[5] = system: Ileum; experiment: Antispasmodic activity in guinea pig ileum assessed as inhibition of acetylcholine-induced spasm; format: functional; conditions: Cavia porcellus, read-out: ED50 (the source's name)
[6] = system: Ileum; experiment: Antispasmodic activity in guinea pig ileum assessed as inhibition of histamine-induced spasm; format: functional; conditions: Cavia porcellus, read-out: ED50 (the source's name)

SMILES	MED50 [1] [mg/kg]	MED50 [2] [mg/kg]	LD50 at 168 h [3] [mg/kg]	Activity [4]	EC50 [5] [µg/mL]	EC50 [6] [µg/mL]
Cc1c(CCN(C)C)n2c3c(cccc13)COc1ccccc1-2.Cl	10	>50	310	Non-toxic		
CN(C)CCc1cc2cccc3c2n1-c1ccccc1OC3.Cl	3	50	195	Non-toxic	10	1
CN(C)CCc1cc2cccc3c2n1-c1ccccc1CC3	2	5	420	Non-toxic	1 (≈ 3.44 µM)	0.2 (≈ 0.689 µM)
Cl.c1ccc(CN(CCc2cc3cccc4c3n2-c2ccccc2CC4)Cc2ccccc2)cc1	50	> 50	1400	Non-toxic	> 10	> 10
CNCCc1cc2cccc3c2n1-c1ccccc1CC3.Cl	1	2.5	410	Non-toxic	4	0.6
Cc1c(CCN(C)C)n2c3c(cccc13)CCc1ccccc1-2	7.5	>50	195	Non-toxic	> 10	> 10
Cc1c(CCN(C)Cc2ccccc2)n2c3c(cccc13)CCc1ccccc1-2.Cl	>50	>50	> 4000	Non-toxic		
CNCCc1c(C)c2cccc3c2n1-c1ccccc1CC3.Cl	2.5	>50	390	Non-toxic	6	5
CN(C)Cc1cc2cccc3c2n1-c1ccccc1CC3	>50	>50	210	Non-toxic		
CN(C)CCc1c(-c2ccccc2)c2cccc3c2n1-c1ccccc1CC3	>50	>50	1900	Non-toxic		
CN(C)Cc1cn2c3c(cccc13)CCc1ccccc1-2.Cl	>50	>50	170	Non-toxic		
Cc1c(CN(C)C)c2cccc3c2n1-c1ccccc1CC3	>50	>50	450	Non-toxic		
CN(C)Cc1c(-c2ccccc2)n2c3c(cccc13)CCc1ccccc1-2	>50	>50	1600	Non-toxic		
CN(CCc1cc2cccc3c2n1-c1ccccc1CC3)Cc1ccccc1.Cl [AZIPRAMINE HYDROCHLORIDE]	3.5	5	> 4000	Non-toxic	> 5	> 5
CN(C)CCCN1c2ccccc2CCc2ccccc21 [IMIPRAMINE]	2.5	2.5			0.3 (≈ 1.07 µM)	0.006 (≈ 0.0214 µM)
